PubChem BioAssay (NCI)
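In this assay, cells in 96-well plates receive the compound at five concentrations for 48 hours. Endpoints are linearly interpolated between the surrounding concentrations. Here, GI50 denotes the concentration required for 50% inhibition of growth. TGI denotes the concentration required for complete inhibition of growth.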

Key:
Assay in all cases: NCI tumour cell line growth inhibition, 48 h
RXF 393 renal = test system: RXF 393 renal
U251 CNS = test system: U251 CNS
HS 578T breast = test system: HS 578T breast
HOP-92 NSCLC = test system: HOP-92 NSCLC
MDA-MB-435 = test system: MDA-MB-435
TK-10 renal = test system: TK-10 renal
MDA-MB-231 breast = test system: MDA-MB-231 breast
SK-MEL-28 melanoma = test system: SK-MEL-28 melanoma
UACC-257 melanoma = test system: UACC-257 melanoma
MDA-N = test system: MDA-N

O=C(Nc1ccc(-n2cc(-c3ccncc3)c(-c3ccc(O)c(Cl)c3)n2)cc1)Nc1cccc(Cl)c1Cl
GI50 (RXF 393 renal): 0.973 µM
TGI (RXF 393 renal): 5.25 µM
GI50 (U251 CNS): 2.54 µM
TGI (U251 CNS): 25 µM
GI50 (HS 578T breast): 2.84 µM
TGI (HS 578T breast): 26.5 µM
GI50 (HOP-92 NSCLC): 1.16 µM
TGI (HOP-92 NSCLC): 9.84 µM
GI50 (MDA-MB-435): 4.5 µM
TGI (MDA-MB-435): > 32.5 µM
GI50 (TK-10 renal): 6.52 µM
TGI (TK-10 renal): 22.1 µM
GI50 (MDA-MB-231 breast): 1.52 µM
TGI (MDA-MB-231 breast): 10.3 µM
GI50 (SK-MEL-28 melanoma): 5.8 µM
TGI (SK-MEL-28 melanoma): 18 µM
GI50 (UACC-257 melanoma): 18.6 µM
TGI (UACC-257 melanoma): > 32.5 µM

COc1ccccc1N1CCN(CCCNC(=O)c2cc(Cl)c(N)c(Cl)c2)CC1
TGI (RXF 393 renal): 91 µM
TGI (U251 CNS): > 100 µM
TGI (HS 578T breast): > 100 µM
TGI (HOP-92 NSCLC): 31.4 µM
TGI (MDA-MB-435): > 100 µM
TGI (TK-10 renal): > 100 µM
TGI (MDA-MB-231 breast): > 100 µM
TGI (SK-MEL-28 melanoma): > 100 µM
TGI (UACC-257 melanoma): 47.8 µM

COc1cc(CNc2nc3cc(C(F)(F)F)ccc3nc2-c2ccccc2)cc(OC)c1OC
TGI (RXF 393 renal): 51.7 µM
TGI (U251 CNS): > 100 µM
TGI (HS 578T breast): > 100 µM
TGI (MDA-N): > 100 µM
TGI (MDA-MB-435): > 100 µM
TGI (TK-10 renal): > 100 µM
TGI (MDA-MB-231 breast): 67.5 µM
TGI (SK-MEL-28 melanoma): > 100 µM
TGI (UACC-257 melanoma): > 100 µM

CC(C)(C)OC(=O)C1C(=O)NC(=O)CC1C(COCc1ccccc1)OCc1ccccc1 (centres undefined)
TGI (U251 CNS): 40.2 µM
TGI (HS 578T breast): 49.5 µM
TGI (MDA-N): 36.2 µM
TGI (HOP-92 NSCLC): 30.5 µM
TGI (MDA-MB-435): 49.7 µM
TGI (TK-10 renal): > 100 µM
TGI (MDA-MB-231 breast): 36.4 µM
TGI (SK-MEL-28 melanoma): 32.1 µM
TGI (UACC-257 melanoma): 41.4 µM

O=C([CH-]C(=O)c1ccccc1)c1ccccc1.O=C([CH-]C(=O)c1ccccc1)c1ccccc1.[O]=[U+2]=[O]
GI50 (RXF 393 renal): 2.35 µM
TGI (RXF 393 renal): 6.22 µM
GI50 (U251 CNS): 3.06 µM
TGI (U251 CNS): > 100 µM
GI50 (HOP-92 NSCLC): 2.9 µM
TGI (HOP-92 NSCLC): 6.18 µM
GI50 (TK-10 renal): 4.8 µM
TGI (TK-10 renal): 26.6 µM
GI50 (SK-MEL-28 melanoma): 3.49 µM
TGI (SK-MEL-28 melanoma): 19.9 µM
GI50 (UACC-257 melanoma): 7.84 µM
TGI (UACC-257 melanoma): 35.5 µM

O=C(CCc1cccc(O)c1)NCCCNC(=O)CCc1cccc(O)c1
TGI (RXF 393 renal): > 100 µM
TGI (U251 CNS): > 100 µM
TGI (HS 578T breast): > 100 µM
TGI (MDA-N): > 100 µM
TGI (HOP-92 NSCLC): > 100 µM
TGI (MDA-MB-435): > 100 µM
TGI (MDA-MB-231 breast): > 100 µM
TGI (SK-MEL-28 melanoma): > 100 µM
TGI (UACC-257 melanoma): > 100 µM

C[C@]1(S(=O)(=O)c2ccccc2)C[C@H]2N(Cc3ccccc3)[C@@H]1CCC21OCCO1
TGI (RXF 393 renal): > 100 µM
TGI (U251 CNS): > 100 µM
TGI (HS 578T breast): > 100 µM
TGI (MDA-N): > 100 µM
TGI (HOP-92 NSCLC): > 100 µM
TGI (MDA-MB-435): > 100 µM
TGI (MDA-MB-231 breast): > 100 µM
TGI (SK-MEL-28 melanoma): > 100 µM
TGI (UACC-257 melanoma): 69.3 µM

CN1COCc2cc3cc4c(cc3nc21)OCCO4
TGI (RXF 393 renal): > 100 µM
TGI (U251 CNS): > 100 µM
TGI (MDA-N): > 100 µM
TGI (HOP-92 NSCLC): > 100 µM
TGI (MDA-MB-435): > 100 µM
TGI (TK-10 renal): > 100 µM
TGI (MDA-MB-231 breast): > 100 µM
TGI (UACC-257 melanoma): > 100 µM

COC(=O)C1(Cc2ccc3c(c2)CCC3)Cc2ccccc2C1=O (centres undefined)
TGI (U251 CNS): 37.2 µM
TGI (HS 578T breast): 87.6 µM
TGI (MDA-N): 13.3 µM
TGI (MDA-MB-435): 18 µM
TGI (TK-10 renal): 55.9 µM
TGI (MDA-MB-231 breast): > 100 µM
TGI (SK-MEL-28 melanoma): 40.3 µM
TGI (UACC-257 melanoma): 76 µM

CCN1C(=O)N(CC)C2Nn3c(s/c(=C4\C(=O)N(C)c5ccccc54)c3=O)=NC21 (centres undefined)
GI50 (U251 CNS): 4.21 µM
TGI (U251 CNS): > 100 µM
GI50 (HOP-92 NSCLC): 69.5 µM
TGI (HOP-92 NSCLC): > 100 µM
GI50 (MDA-MB-231 breast): 3.42 µM
TGI (MDA-MB-231 breast): > 100 µM
GI50 (SK-MEL-28 melanoma): 6.45 µM
TGI (SK-MEL-28 melanoma): > 100 µM
GI50 (UACC-257 melanoma): 7.71 µM
TGI (UACC-257 melanoma): > 100 µM

CCCCC#CS(=O)(=O)C(F)(F)F
TGI (RXF 393 renal): 78.1 µM
TGI (U251 CNS): > 100 µM
TGI (HOP-92 NSCLC): > 84.4 µM
TGI (SK-MEL-28 melanoma): > 100 µM
TGI (UACC-257 melanoma): > 100 µM

CCOC(=O)C1(C(=O)OCC)CCCN1C(=O)[C@H](CNC(=O)OC(C)(C)C)NC(=O)OCc1ccccc1
TGI (RXF 393 renal): > 100 µM
TGI (U251 CNS): > 100 µM
TGI (HS 578T breast): > 100 µM
TGI (MDA-N): > 100 µM
TGI (MDA-MB-435): > 100 µM
TGI (TK-10 renal): > 100 µM
TGI (MDA-MB-231 breast): > 100 µM
TGI (SK-MEL-28 melanoma): > 100 µM
TGI (UACC-257 melanoma): > 100 µM

O=C(O)CSC(NC(=O)C(C(F)(F)F)C(F)(F)F)(C(F)(F)F)C(F)(F)F
TGI (RXF 393 renal): > 100 µM
TGI (U251 CNS): > 100 µM
TGI (HS 578T breast): > 100 µM
TGI (MDA-N): > 100 µM
TGI (MDA-MB-435): > 100 µM
TGI (TK-10 renal): > 100 µM
TGI (SK-MEL-28 melanoma): > 100 µM
TGI (UACC-257 melanoma): > 100 µM

O=C(O)CC(NC(=O)/C(=C/c1ccccc1O)NC(=O)c1ccccc1)C(=O)O (centres undefined)
TGI (U251 CNS): > 100 µM
TGI (MDA-N): > 100 µM
TGI (MDA-MB-435): > 100 µM
TGI (TK-10 renal): > 100 µM
TGI (MDA-MB-231 breast): > 100 µM
TGI (SK-MEL-28 melanoma): > 100 µM
TGI (UACC-257 melanoma): > 100 µM

O=c1n(Cc2ccccc2)c(=O)n2c(=O)n(Cc3ccccc3)c(=O)n12
TGI (U251 CNS): > 100 µM
TGI (HS 578T breast): > 100 µM
TGI (MDA-N): > 100 µM
TGI (HOP-92 NSCLC): > 100 µM
TGI (MDA-MB-435): > 100 µM
TGI (TK-10 renal): > 100 µM
TGI (MDA-MB-231 breast): > 100 µM
TGI (SK-MEL-28 melanoma): > 100 µM
TGI (UACC-257 melanoma): > 100 µM

CC1=CC(=O)CC2(C)CCC(C(C)CC(=O)CC(C)C)CC12 (centres undefined)
TGI (RXF 393 renal): > 100 µM
TGI (U251 CNS): > 100 µM
TGI (HS 578T breast): > 100 µM
TGI (HOP-92 NSCLC): > 100 µM
TGI (MDA-MB-435): 39 µM
TGI (TK-10 renal): > 100 µM
TGI (MDA-MB-231 breast): > 100 µM
TGI (SK-MEL-28 melanoma): 72.9 µM
TGI (UACC-257 melanoma): 64.1 µM

O=C(c1ccccc1)N1C(=S)N=C(Nc2ccccc2)C1=Nc1ccccc1
TGI (RXF 393 renal): > 100 µM
TGI (U251 CNS): > 100 µM
TGI (HS 578T breast): > 100 µM
TGI (MDA-N): > 100 µM
TGI (MDA-MB-435): > 100 µM
TGI (TK-10 renal): > 100 µM
TGI (MDA-MB-231 breast): > 100 µM
TGI (SK-MEL-28 melanoma): > 100 µM
TGI (UACC-257 melanoma): > 100 µM

CC(C)CCn1nc(N)c2nc3ccccc3nc21
TGI (RXF 393 renal): > 100 µM
TGI (U251 CNS): > 100 µM
TGI (HS 578T breast): > 100 µM
TGI (MDA-N): > 100 µM
TGI (HOP-92 NSCLC): > 100 µM
TGI (MDA-MB-435): > 100 µM
TGI (TK-10 renal): > 100 µM
TGI (SK-MEL-28 melanoma): > 100 µM
TGI (UACC-257 melanoma): > 100 µM

COC(=O)[C@H](C)NC(=O)[C@H](CSC)N1C(=O)N[C@@H](C(C)C)C1=O
TGI (RXF 393 renal): > 100 µM
TGI (U251 CNS): > 100 µM
TGI (MDA-N): > 100 µM
TGI (HOP-92 NSCLC): > 100 µM
TGI (MDA-MB-435): > 100 µM
TGI (TK-10 renal): > 100 µM
TGI (MDA-MB-231 breast): > 100 µM
TGI (SK-MEL-28 melanoma): > 100 µM
TGI (UACC-257 melanoma): > 100 µM

Nc1ccc2nc3n(c2c1)C(=O)c1ccccc1-3
TGI (RXF 393 renal): > 100 µM
TGI (U251 CNS): > 100 µM
TGI (MDA-N): > 100 µM
TGI (HOP-92 NSCLC): > 100 µM
TGI (TK-10 renal): > 100 µM
TGI (SK-MEL-28 melanoma): > 100 µM
TGI (UACC-257 melanoma): > 100 µM

COc1ccc(-c2csc(NC(=O)CSc3nc(C)c(-c4ccccc4)n3Nc3ccccc3)n2)cc1
GI50 (RXF 393 renal): > 100 µM
TGI (RXF 393 renal): > 100 µM
GI50 (U251 CNS): > 100 µM
TGI (U251 CNS): > 100 µM
GI50 (HS 578T breast): 6.69 µM
TGI (HS 578T breast): > 100 µM
GI50 (HOP-92 NSCLC): > 100 µM
TGI (HOP-92 NSCLC): > 100 µM
GI50 (MDA-MB-435): 5.77 µM
TGI (MDA-MB-435): > 100 µM
GI50 (TK-10 renal): > 100 µM
TGI (TK-10 renal): > 100 µM
GI50 (MDA-MB-231 breast): 13.3 µM
TGI (MDA-MB-231 breast): > 100 µM
GI50 (SK-MEL-28 melanoma): > 100 µM
TGI (SK-MEL-28 melanoma): > 100 µM
GI50 (UACC-257 melanoma): > 100 µM
TGI (UACC-257 melanoma): > 100 µM

CC12CC1C(c1cccc([N+](=O)[O-])c1)(c1cccc([N+](=O)[O-])c1)N=N2 (centres undefined)
TGI (U251 CNS): 51 µM
TGI (HS 578T breast): 78 µM
TGI (MDA-N): 50.5 µM
TGI (HOP-92 NSCLC): 34.7 µM
TGI (MDA-MB-435): > 100 µM
TGI (TK-10 renal): > 100 µM
TGI (MDA-MB-231 breast): 39.1 µM
TGI (SK-MEL-28 melanoma): > 100 µM
TGI (UACC-257 melanoma): > 100 µM
